Earlier results on one compound are cited in patent US9557341B2, “Risk assessment for cutaneous adverse drug reactions from antiretroviral agent” (priority 2008, dated 2017).

The conditions of the data set: cited from earlier work.

For `Cc1ccnc2c1NC(=O)c1cccnc1N2C1CC1` [NVP, nevirapine], under “HIV patients”, the hepatitis is 7-15.6% and the patients reported rash is 16%-48. For the same compound, for the setting “patient with high CD4 level”, the “negative predictive value of HLA-DRB1*0101 for hepatitis” value is 96% and the “positive predictive value of HLA-DRB1*0101 for hepatitis” value is reported as 40%.
